Converted amounts (≈) assume the structure as drawn.
What was measured:
Pseudomonas aeruginosa = experiment: Antimicrobial activity against Pseudomonas aeruginosa after 18 to 20 hr by agar dilution method; type: functional
Citrobacter freundii = experiment: Antimicrobial activity against Citrobacter freundii after 18 to 20 hr by agar dilution method; type: functional
Salmonella enteritidis = experiment: Antimicrobial activity against Salmonella enterica subsp. enterica serovar Enteritidis after 18 to 20 hr by agar dilution method; type: functional
Klebsiella pneumoniae [1] = experiment: Antimicrobial activity against Klebsiella pneumoniae after 18 to 20 hr by agar dilution method; type: functional
[2] = system: Human immunodeficiency virus 1; experiment: Antiviral activity against Human immunodeficiency virus 1 IIIB infected MT4 cells assessed as protection against viral infection after 5 days by MTT assay; type: functional; set-up: concentration or dose not given beside the values
Vibrio mimicus = experiment: Antimicrobial activity against Vibrio mimicus after 18 to 20 hr by agar dilution method; type: functional
[3] = Selectivity index, ratio of CC50 for human MT4 cells to EC50 for HIV1 3B infected in MT4 cells; type: toxicity, cell-based; conditions: read-out: Ratio CC50/EC50
[4] = Cytotoxicity against Homo sapiens (human) CEM cells after 5 days by MTT assay; type: cell-based; conditions: CEM cells (CCRF-CEM)
Klebsiella pneumoniae [5] = experiment: Antimicrobial activity against Klebsiella pneumoniae subsp. ozaenae after 18 to 20 hr by agar dilution method; type: functional
Enterobacter = experiment: Antimicrobial activity against Enterobacter after 18 to 20 hr by agar dilution method; type: functional
[6] = system: Human immunodeficiency virus 1; experiment: Antiviral activity against Human immunodeficiency virus 1 IIIB infected CEM cells assessed as protection against viral infection after 6 days by XTT assay; type: functional, CCRF-CEM; set-up: concentration or dose not given beside the values
[7] = Cytotoxicity against Homo sapiens (human) MT4 cells after 5 days by MTT assay; type: cell-based
Vibrio fluvialis = experiment: Antimicrobial activity against Vibrio fluvialis after 18 to 20 hr by agar dilution method; type: functional
[8] = system: Human immunodeficiency virus 1; experiment: Antiviral activity against Human immunodeficiency virus 1 IIIB infected CEM cells assessed as inhibition of virus-induced cytopathicity after 6 days by XTT assay; type: functional, organism-based; conditions: CCRF-CEM, 144 h
[9] = Cytotoxicity against Homo sapiens (human) HuH7 cells assessed as cell growth at 50 ug/ml after 3 days by Neutral red assay; type: cell-based, Huh-7; conditions: read-out: Activity
[10] = system: Human immunodeficiency virus 1; experiment: Antiviral activity against Human immunodeficiency virus 1 IIIB infected MT4 cells assessed as inhibition of virus-induced cytopathicity after 5 days by MTT assay; type: functional, organism-based; conditions: MT4, 120 h
Staphylococcus aureus = experiment: Antimicrobial activity against Staphylococcus aureus after 18 to 20 hr by agar dilution method; type: functional
Vibrio cholerae [11] = experiment: Antimicrobial activity against Vibrio cholerae 0139 after 18 to 20 hr by agar dilution method; type: functional; conditions: 139
Proteus vulgaris = experiment: Antimicrobial activity against Proteus vulgaris after 18 to 20 hr by agar dilution method; type: functional
Shigella boydii = experiment: Antimicrobial activity against Shigella boydii after 18 to 20 hr by agar dilution method; type: functional
Escherichia coli = experiment: Antimicrobial activity against Escherichia coli NCTC 10418 after 18 to 20 hr by agar dilution method; type: functional
Proteus mirabilis = experiment: Antimicrobial activity against Proteus mirabilis after 18 to 20 hr by agar dilution method; type: functional
Salmonella typhi = experiment: Antimicrobial activity against Salmonella enterica subsp. enterica serovar Typhi after 18 to 20 hr by agar dilution method; type: functional
Salmonella typhimurium = experiment: Antimicrobial activity against Salmonella enterica subsp. enterica serovar Typhimurium after 18 to 20 hr by agar dilution method; type: functional
Plesiomonas = experiment: Antimicrobial activity against Plesiomonas after 18 to 20 hr by agar dilution method; type: functional
Salmonella paratyphi = experiment: Antimicrobial activity against Salmonella enterica subsp. enterica serovar Paratyphi A after 18 to 20 hr by agar dilution method; type: functional
Edwardsiella tarda = experiment: Antimicrobial activity against Edwardsiella tarda after 18 to 20 hr by agar dilution method; type: functional
Shigella sonnei = experiment: Antimicrobial activity against Shigella sonnei after 18 to 20 hr by agar dilution method; type: functional
[12] = system: Mycobacterium tuberculosis; experiment: Antimycobacterial activity against Mycobacterium tuberculosis H37Rv ATCC 27294 at 6.25 ug/ml by MABA; type: functional
Hepatitis C virus = experiment: Antiviral activity against Hepatitis C virus BM4-5 infected in Huh7 cells assessed as inhibition of viral RNA replication by phosphor screening method; type: functional, Hepacivirus hominis, Huh-7
Vibrio cholerae [13] = experiment: Antimicrobial activity against Vibrio cholerae 01 after 18 to 20 hr by agar dilution method; type: functional; conditions: 1
Morganella morganii = experiment: Antimicrobial activity against Morganella morganii after 18 to 20 hr by agar dilution method; type: functional
Vibrio parahaemolyticus = experiment: Antimicrobial activity against Vibrio parahaemolyticus after 18 to 20 hr by agar dilution method; type: functional
Priestia megaterium = experiment: Antimicrobial activity against Bacillus megaterium after 18 to 20 hr by agar dilution method; type: functional

| SMILES | MIC (Pseudomonas aeruginosa) | MIC (Citrobacter freundii) | MIC (Salmonella enteritidis) | MIC (Klebsiella pneumoniae [1]) | Activity [2] | MIC (Vibrio mimicus) | selectivity ratio [3] | MIC (Klebsiella pneumoniae [5]) | MIC (Enterobacter) | CC50 at 120 h [7] | MIC (Vibrio fluvialis) | viability at 72 h, 50 ug/ml [9] | EC50 [10] | MIC (Staphylococcus aureus) | MIC (Vibrio cholerae [11]) | MIC (Proteus vulgaris) | MIC (Shigella boydii) | MIC (Escherichia coli) | MIC (Proteus mirabilis) | MIC (Salmonella typhi) | other results |
| --- | --- | --- | --- | --- | --- | --- | --- | --- | --- | --- | --- | --- | --- | --- | --- | --- | --- | --- | --- | --- | --- |
| COc1cc(Cc2cnc(/N=C3\C(=O)N(CN4CCCCC4C)c4ccc(Cl)cc43)nc2N)cc(OC)c1OC (stereo not drawn) | 1250 µg/mL (≈ 2210 µM) | 625 µg/mL (≈ 1110 µM) | 625 µg/mL (≈ 1110 µM) | 1250 µg/mL (≈ 2210 µM) | 62.6% | 0.61 µg/mL (≈ 1.08 µM) | 3 | 1250 µg/mL (≈ 2210 µM) | 625 µg/mL (≈ 1110 µM) | 97.3 µg/mL (≈ 172 µM) | 1250 µg/mL (≈ 2210 µM) | 112% | 32.6 µg/mL (≈ 57.7 µM) | 312 µg/mL (≈ 553 µM) | 625 µg/mL (≈ 1110 µM) | 625 µg/mL (≈ 1110 µM) | 4.88 µg/mL (≈ 8.64 µM) | 625 µg/mL (≈ 1110 µM) | 625 µg/mL (≈ 1110 µM) | 1250 µg/mL (≈ 2210 µM) | CC50 at 120 h [4]: > 83.8 µg/mL; Activity [6]: 20.7%; EC50 [8]: > 83.8 µg/mL; MIC (Salmonella typhimurium): 1250 µg/mL (≈ 2210 µM); MIC (Plesiomonas): 19.5 µg/mL (≈ 34.6 µM); MIC (Salmonella paratyphi): 625 µg/mL (≈ 1110 µM); MIC (Edwardsiella tarda): 1250 µg/mL (≈ 2210 µM); MIC (Shigella sonnei): 1250 µg/mL (≈ 2210 µM); inhibition at 6.25 µg/mL [12]: 10%; inhibition (INH) (Hepatitis C virus): 89%; MIC (Vibrio cholerae [13]): 4.88 µg/mL (≈ 8.64 µM); MIC (Morganella morganii): 1250 µg/mL (≈ 2210 µM); MIC (Vibrio parahaemolyticus): 1.22 µg/mL (≈ 2.16 µM); MIC (Priestia megaterium): 625 µg/mL (≈ 1110 µM) |
| COc1cc(Cc2cnc(/N=C3\C(=O)N(CN(Cc4ccccc4)Cc4ccccc4)c4ccc(Cl)cc43)nc2N)cc(OC)c1OC | 1250 µg/mL (≈ 1880 µM) | 1250 µg/mL (≈ 1880 µM) | 625 µg/mL (≈ 942 µM) | 1250 µg/mL (≈ 1880 µM) | 95.1% | 4.88 µg/mL (≈ 7.36 µM) | 3 | 1250 µg/mL (≈ 1880 µM) | 625 µg/mL (≈ 942 µM) | 44.1 µg/mL (≈ 66.5 µM) | 1250 µg/mL (≈ 1880 µM) | 65% | 10.4 µg/mL (≈ 15.7 µM) | 625 µg/mL (≈ 942 µM) | 312 µg/mL (≈ 471 µM) | 625 µg/mL (≈ 942 µM) | 1.22 µg/mL (≈ 1.84 µM) | 625 µg/mL (≈ 942 µM) | 625 µg/mL (≈ 942 µM) | 625 µg/mL (≈ 942 µM) | CC50 at 120 h [4]: 37.1 µg/mL (≈ 55.9 µM); Activity [6]: 20.98%; EC50 [8]: > 37.1 µg/mL; MIC (Salmonella typhimurium): 1250 µg/mL (≈ 1880 µM); MIC (Plesiomonas): 39.1 µg/mL (≈ 58.9 µM); MIC (Salmonella paratyphi): 625 µg/mL (≈ 942 µM); MIC (Edwardsiella tarda): 625 µg/mL (≈ 942 µM); MIC (Shigella sonnei): 1250 µg/mL (≈ 1880 µM); inhibition at 6.25 µg/mL [12]: 97%; inhibition (INH) (Hepatitis C virus): 81%; MIC (Vibrio cholerae [13]): 1.22 µg/mL (≈ 1.84 µM); MIC (Morganella morganii): 625 µg/mL (≈ 942 µM); MIC (Vibrio parahaemolyticus): 19.5 µg/mL (≈ 29.4 µM); MIC (Priestia megaterium): 1250 µg/mL (≈ 1880 µM) |
| CCCCN(CCCC)CN1C(=O)/C(=N\c2ncc(Cc3cc(OC)c(OC)c(OC)c3)c(N)n2)c2cc(Cl)ccc21 | 2500 µg/mL (≈ 4200 µM) | 1250 µg/mL (≈ 2100 µM) | 625 µg/mL (≈ 1050 µM) | 1250 µg/mL (≈ 2100 µM) | 73.2% | 4.88 µg/mL (≈ 8.2 µM) | 3 | 1250 µg/mL (≈ 2100 µM) | 1250 µg/mL (≈ 2100 µM) | 62.6 µg/mL (≈ 105 µM) | 1250 µg/mL (≈ 2100 µM) | 48% | 16.1 µg/mL (≈ 27.1 µM) | 1250 µg/mL (≈ 2100 µM) | 625 µg/mL (≈ 1050 µM) | 1250 µg/mL (≈ 2100 µM) | 39.1 µg/mL (≈ 65.6 µM) | 1250 µg/mL (≈ 2100 µM) | 1250 µg/mL (≈ 2100 µM) | 1250 µg/mL (≈ 2100 µM) | MIC (Salmonella typhimurium): 1250 µg/mL (≈ 2100 µM); MIC (Plesiomonas): 39.1 µg/mL (≈ 65.6 µM); MIC (Salmonella paratyphi): 625 µg/mL (≈ 1050 µM); MIC (Edwardsiella tarda): 1250 µg/mL (≈ 2100 µM); MIC (Shigella sonnei): 1250 µg/mL (≈ 2100 µM); inhibition at 6.25 µg/mL [12]: 67%; inhibition (INH) (Hepatitis C virus): 84%; MIC (Vibrio cholerae [13]): 0.61 µg/mL (≈ 1.03 µM); MIC (Morganella morganii): 625 µg/mL (≈ 1050 µM); MIC (Vibrio parahaemolyticus): 19.5 µg/mL (≈ 32.8 µM); MIC (Priestia megaterium): 1250 µg/mL (≈ 2100 µM) |
| COc1cc(Cc2cnc(/N=C3\C(=O)N(CN4CCN(c5ccc(F)cc5)CC4)c4ccc(Cl)cc43)nc2N)cc(OC)c1OC | 1250 µg/mL (≈ 1930 µM) | 625 µg/mL (≈ 967 µM) | 625 µg/mL (≈ 967 µM) | 1250 µg/mL (≈ 1930 µM) | 59.6% | 4.88 µg/mL (≈ 7.55 µM) | 3 | 625 µg/mL (≈ 967 µM) | 625 µg/mL (≈ 967 µM) | 65.6 µg/mL (≈ 102 µM) | 1250 µg/mL (≈ 1930 µM) | 64% | 56.1 µg/mL (≈ 86.8 µM) | 625 µg/mL (≈ 967 µM) | 625 µg/mL (≈ 967 µM) | 625 µg/mL (≈ 967 µM) | 19.5 µg/mL (≈ 30.2 µM) | 625 µg/mL (≈ 967 µM) | 625 µg/mL (≈ 967 µM) | 625 µg/mL (≈ 967 µM) | CC50 at 120 h [4]: 71 µg/mL (≈ 110 µM); Activity [6]: 22.98%; EC50 [8]: > 71 µg/mL; MIC (Salmonella typhimurium): 625 µg/mL (≈ 967 µM); MIC (Plesiomonas): 9.76 µg/mL (≈ 15.1 µM); MIC (Salmonella paratyphi): 312 µg/mL (≈ 484 µM); MIC (Edwardsiella tarda): 625 µg/mL (≈ 967 µM); MIC (Shigella sonnei): 1250 µg/mL (≈ 1930 µM); inhibition at 6.25 µg/mL [12]: 35%; inhibition (INH) (Hepatitis C virus): 80%; MIC (Vibrio cholerae [13]): 4.88 µg/mL (≈ 7.55 µM); MIC (Morganella morganii): 625 µg/mL (≈ 967 µM); MIC (Vibrio parahaemolyticus): 39.1 µg/mL (≈ 60.5 µM); MIC (Priestia megaterium): 625 µg/mL (≈ 967 µM) |

— ChEMBL document CHEMBL3045426, “Synthesis, Antiviral and Antibacterial Activities of Isatin Mannich Bases” (Med Chem Res, 2005)
